Results on three molecules are retold here after patent US5468615A, “Binding assay employing a synthetic gene for D4 dopamine receptors” (The Upjohn Company, priority 1993, dated 1995).

Data set [1] has as its target T1, synthetic D4 receptor (Homo sapiens, UniProt P21917, DEL265-296).
T1 sequence (P21917 with tags, fused parts or gaps DEL271-302): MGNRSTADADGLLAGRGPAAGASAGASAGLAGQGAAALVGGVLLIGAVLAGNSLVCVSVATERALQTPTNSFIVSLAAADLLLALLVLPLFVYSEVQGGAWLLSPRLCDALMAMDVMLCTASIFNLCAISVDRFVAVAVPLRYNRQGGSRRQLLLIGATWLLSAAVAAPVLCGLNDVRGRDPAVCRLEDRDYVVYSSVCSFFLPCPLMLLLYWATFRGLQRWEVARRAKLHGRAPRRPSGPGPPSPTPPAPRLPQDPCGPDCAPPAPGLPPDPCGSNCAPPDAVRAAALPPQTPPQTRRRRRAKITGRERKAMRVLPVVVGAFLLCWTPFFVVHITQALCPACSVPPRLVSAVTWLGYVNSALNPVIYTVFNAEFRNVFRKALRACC
The data set can be described thus: (3H)spiperone radioligand binding, membranes of HEK293 cells expressing synthetic D4 receptor (line D4-24). The arrangement: expressed in transfected cells; host or cells: HEK293 cells (EBV-based vector pCEP4), line D4-24. The protocol: Each point is the mean of duplicates with non-specific binding subtracted.
(§1) LacI synthetic D4 transfected cells were grown in the presence of 100 μM IPTG for 48 hours prior to harvest. Cells grown in 100 mm dishes were rinsed once with 5 mls of ice cold Ca^2+ /Mg^2+ free PBS and scraped into 5 mls of the same buffer. Cells were pelleted (500×g, 5 minutes), and resuspended in 25 mM Tris, 5 mM EDTA, 5 mM EGTA, pH 7.5 (TEE), and frozen in liquid nitrogen. After thawing, the cells were homogenized and centrifuged at 1,000×g to remove nuclei and unbroken cells. The supernatant was centrifuged at 20,000×g, the membrane pellet was washed once with TEE, resuspended in binding buffer, and frozen in liquid nitrogen. Membrane aliquots were stored at -70° C.
(§2) Incubations were for 1 hour at 30° C. Assays were stopped by filtration through Whatman GF/B filters followed by 2×10 ml washes with ice cold 50 mM Tris, pH 7.5. The filters were counted by liquid scintillation spectroscopy.

Data set [2] has as its target T1, synthetic D4 receptor. As to the kind of experiment: (3H)spiperone radioligand binding, membranes of LacI (CHO) cells expressing synthetic D4 receptor (line D4-19). Further details: expressed in transfected cells. The following applies: Scatchard transformation of saturation binding; line D4-19, IPTG induced. The protocol:
as §1, §2

The next data set deals with D4 receptors. The following applies: CHO cells expressing D4 receptors.
Another data set concerns schizophrenics. The following applies: unlike other antipsychotic drugs; Casey (1989); cited from earlier work.

Experimental for D4 receptors: AMP accumulation was measured in intact D4-19 cells plated at a density of 15,000 cells/well in a 24 well plate 48 hours prior to the experiment. The cells were incubated in serum free medium 1 hour prior to the experiment. Fresh medium (0.5 ml) containing 100 μM forskolin, 100 μM IBMX and varying concentrations of drugs were added to each well and cAMP was allowed to accumulate for 15 minutes at 30° C. The reactions were terminated by the removal of the medium and the addition of 100 μl cold 7.5% (TCA) trichloroacetic acid. The samples were diluted by the addition of 1.0 ml 50 mM sodium acetate, pH 6.2 and aliquots were assayed by RIA using Biomedical Technologies Incorporated cAMP RIA kit.
cAMP accumulation was measured in forskolin stimulated cells as described in methods. Dopamine (10 μM) was added to 3 wells (DA). […] The bars are the averages of the three wells expressed as the percentage of the forskolin response.

In the case of `O=C(CCCN1CCC2(CC1)C(=O)NCN2c1ccccc1)c1ccc(F)cc1` [(^3 H)-spiperone], the “receptor expression over passages (3H-spiperone binding)” value on synthetic D4 receptor [1] (D4-24 cells, 540 pM 3H-spiperone, up to at least 12 passages over 10 weeks (FIG. 5)) is recorded as “remains constant”. Also, the Bmax on synthetic D4 receptor [1] (Scatchard analysis of saturation binding, line D4-24 (FIG. 4)) was 736 fmol/mg protein; on synthetic D4 receptor [2], 260 fmol/mg protein.
Take `NCCc1ccc(O)c(O)c1` [dopamine]: in the data set on D4 receptors (10 μM dopamine, forskolin stimulated (FIG. 6)), the “inhibition of cAMP accumulation” value is “Inhibition of cAMP accumulation”.
Regarding `CN1CCN(C2=Nc3cc(Cl)ccc3Nc3ccccc32)CC1` [clozapine], the “antagonism of dopamine inhibition of cAMP accumulation” value with D4 receptors (10 μM clozapine with 10 μM dopamine (FIG. 6)) is on record as “Antagonism”. In the data set on schizophrenics, the tardive dyskinesia result is “does not cause tardive dyskinesia”.
